For one compound, inhibition results are on record in ChEMBL document CHEMBL1629688, “A collection of caged compounds for probing roles of local translation in neurobiology” (Bioorg Med Chem, 2010).

The test system of the assay is Ribosome. The experiment in a line: Inhibition of ribosome peptidyl transferase site in rabbit reticulocytes assessed as inhibition of translation using firefly luciferase DNA as template at 0.8 to 80 uM after 1 hr by luciferase assay. Format: subcellular. The following applies: Oryctolagus cuniculus.

SMILES strings stand for the structures. Activity calls are given as the source filed them. The rule behind the calls is not given here.

For the compound `CCN(CC)c1ccc2c(COC(=O)N3C[C@@H](O)[C@H](OC(C)=O)[C@@H]3Cc3ccc(OC)cc3)cc(=O)oc2c1`, the inhibition result is “Active”.
